Reference: US20230331720A1, “MEDIUM- OR MACRO-CYCLIC BENZYL-SUBSTITUTED HETEROCYCLE DERIVATIVES AND THEIR USES AS OREXIN-2 RECEPTOR AGONISTS” (Orexia Therapeutics Limited, priority 2020, published 2023)
Where two headings read alike, the source gives them in different places.

Assays:
[1] = not given; remark: listed apart in the source
[2] = molecular target: T1, human orexin type 2 receptor (hOX2R) (Homo sapiens, UniProt O43614); assay: Orexin type 2 receptor agonist activity, intracellular Ca2+ (FLIPR TETRA); format: cell-based; conditions: CHO cells expressing hOX2R; Ca2+ fluorescence area; read-out: hOx2 pEC50 (converted)
T1 construct: expressed in transfected cells
T1 sequence (O43614 1-444): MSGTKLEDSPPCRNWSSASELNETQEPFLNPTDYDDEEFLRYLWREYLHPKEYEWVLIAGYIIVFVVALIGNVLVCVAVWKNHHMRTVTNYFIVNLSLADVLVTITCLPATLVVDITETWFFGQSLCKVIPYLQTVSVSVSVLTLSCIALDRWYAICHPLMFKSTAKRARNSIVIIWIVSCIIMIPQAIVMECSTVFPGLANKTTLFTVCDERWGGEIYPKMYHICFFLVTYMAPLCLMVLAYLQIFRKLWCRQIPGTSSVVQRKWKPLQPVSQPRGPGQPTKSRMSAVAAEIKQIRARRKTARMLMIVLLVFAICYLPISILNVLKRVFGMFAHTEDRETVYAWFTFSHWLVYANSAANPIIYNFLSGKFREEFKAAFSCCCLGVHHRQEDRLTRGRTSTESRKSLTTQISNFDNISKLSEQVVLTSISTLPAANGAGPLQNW
Method: Stable cell line generation. Obtainment of cells stably expressing either human orexin type 2 or human orexin type 1 receptor; to obtain a stable cell line the Orexin receptor cDNA was inserted into pcDNA3.1(+) plasmid vector and clones identified by G418 drug resistance selection. […] A single clone for OX2R-CHO and OX1R-CHO were grown in bulk and frozen to generate a cell bank for routine screening.
Measurement of orexin type 2 receptor agonist activity. Chinese hamster ovary (CHO) cells expressing human orexin type 2 receptor (hOX2R) or human orexin type 1 receptor (hOX1R) were seeded in each well of 384 well black clear bottom plates (BD Flacon) at 10,000 cells per well and cultured for 24 hr in an Ham's F12 (Gibco) medium containing 10% fetal calf serum (Sigma Aldrich) under the conditions of 37° C., 5% CO2. After removal of the medium, 50 μl of assay buffer 1 (0.1% bovine serum albumin (Sigma Aldrich), 20 mM HEPES (Molecular Dimensions), […] probenecid (Sigma Aldrich), 1× Calcium 5 dye (Molecular Devices) in Hank's balanced salt solution (Invitrogen)) was added, and the cells were incubated for 60 min under the conditions of 37° C., 5% CO2. A test compound was dissolved in dimethyl sulfoxide (Sigma Aldrich) to 10 mM, and then diluted with assay buffer 2 (20 mM HEPES, Hank's balanced salt solution, 0.1% bovine serum albumin). For the reaction, a test compound solution (10 μl) was added using Fluorescent Imaging Plate Reader TETRA (FLIPR TETRA: manufactured by Molecular Devices), a fluorescence value (excitation wavelength 488 nm, measurement wavelength 570 nm) of each well was measured every one second for 2 min, and the agonist activity was determined using the area of the fluorescence value as an indicator of intracellular Ca^2+ concentration. The agonist activity of the test compound was calculated assuming that the fluorescence value of the well added with only the dilution buffer was 0% and the fluorescence value of the well added with 10 nM human orexin A (Tocris) buffer was 100%. As used herein, Emax indicates the value at 10 μM concentration when orexin A is converted to a full agonist (maximum value of agonist activity: 100%).

[3] = test system: mouse models of narcolepsy type 1 / WT mice; conditions: cited from earlier work
individuals with NT1 = conditions: initial clinical studies; cited from earlier work
[4] = amide bond, 13-membered ring, HATU/DIEA, DMF, 10.0 mM, 25.0 °C

CN(C)S(=O)(=O)NC1CCCN2C(=O)CCOc3ccccc3-c3cccc(c3)CC12 (stereo not drawn)
ring closure, yield after HPLC (from CN(C)S(=O)(=O)NC1CCCNC1Cc1cccc(-c2ccccc2OCCC(=O)O)c1, amide bond, 12-membered ring, HATU/DIEA, DMF, 0.4 mM, 20.0 °C, 12.0 h): 29.9%

O=C1CCCN2C(=O)CCOc3cccc(F)c3-c3cccc(c3)CC12 (stereo not drawn)
ring closure, isolated yield ([1]; from O=C(O)CCOc1cccc(F)c1-c1cccc(CC2NCCCC2=O)c1, amide bond, 12-membered ring, HATU/DIEA, DMF, 0.49 mM, 25.0 °C, 12.0 h): 27.7%

O=C1CCCN2C(=O)CCOc3ccccc3-c3cc(ccc3F)CC12 (stereo not drawn)
ring closure, isolated yield ([1]; from O=C(O)CCOc1ccccc1-c1cc(CC2NCCCC2=O)ccc1F, amide bond, 12-membered ring, HATU/DIEA, DMF, 0.54 mM, 25.0 °C, 12.0 h): 28.4%

O=C1CCOc2ccc(F)cc2-c2cccc(c2)C[C@H]2[C@@H](NS(=O)(=O)CF)CCCN12 [Compound A1-91, 1-fluoro-N-((4^2S,4^3S)-15-fluoro-5-oxo-8-oxa-4(2,1)-piperidina-1(1,2),2(1,3)-dibenzenacyclooctaphane-4^3-yl)methanesulfonamide]
EC50 [2]: 0.001 to 0.01 µM

CN1CCOc2ccccc2-c2cccc(c2F)C[C@H]2[C@@H](NS(=O)(=O)CF)[C@@H](F)CN2C1=O [Compound A1-92, N-((4^2S,4^3R,4^4S)-2^2,4^4-difluoro-6-methyl-5-oxo-9-oxa-6-aza-4(2,1)-pyrrolidina-1(1,2),2(1,3)-dibenzenacyclononaphane-4^3-yl)-1-fluoromethanesulfonamide]
EC50 [2]: 0.001 to 0.01 µM

CN1CCOc2ccccc2-c2cccc(c2)C[C@H]2[C@@H](NS(=O)(=O)C(F)F)C3(CC3)CN2C1=O [Compound A1-95, 1,1-difluoro-N-((2′S,3′S)-6′-methyl-5′-oxospiro[cyclopropane-1,4′-9-oxa-6-aza-4(2,1)-pyrrolidina-1(1,2),2(1,3)-dibenzenacyclononaphan]-3′-yl)methanesulfonamide]
EC50 [2]: 0.001 to 0.01 µM

O=C1CCOc2ccccc2-c2cccc(c2F)C[C@H]2[C@@H](NS(=O)(=O)C(F)F)[C@@H](F)CN12 [Compound A1-96]
EC50 [2]: 0.01 to 0.1 µM

O=C1CCOc2ccccc2-c2cc(F)cc(c2F)C[C@H]2[C@@H](NS(=O)(=O)CF)CCCN12 [Compound A1-97]
EC50 [2]: 0.01 to 0.1 µM

O=C1CCOc2ccccc2-c2cccc(c2F)C[C@H]2[C@@H](NS(=O)(=O)C(F)F)CCCN12 [Compound A1-98]
EC50 [2]: 0.0001 to 0.001 µM

O=C1CCOc2ccccc2-c2cccc(c2)C[C@H]2[C@@H](NS(=O)(=O)CF)C3(CC3)CN12 [Compound A1-99]
EC50 [2]: 0.01 to 0.1 µM

CCS(=O)(=O)N[C@H]1CCCN2C(=O)CCOc3ccccc3-c3cccc(c3F)C[C@@H]12 [Compound A1-100]
EC50 [2]: 0.001 to 0.01 µM

O=C1CCOc2ccccc2-c2cccc(c2F)C[C@H]2[C@@H](NS(=O)(=O)CF)CCCN12 [Compound A1-102]
EC50 [2]: 0.01 to 0.1 µM

COC(=O)N1CCC[C@H](NS(C)(=O)=O)[C@@H]1CO[C@H]1CC[C@@H](c2ccccc2)CC1 [TAK-925]
wakefulness ([3]; subcutaneous administration, OX2R-knockout mice): not
wakefulness ([3]; subcutaneous administration, WT mice): modestly increased wakefulness
cataplexy (individuals with NT1): trends for decreasing cataplexy
wakefulness (individuals with NT1): substantial levels of increased wakefulness

COc1ccc(-c2cccc(C(=O)N(C)C)c2)cc1S(=O)(=O)Nc1cccc(NCCNC(=O)c2ccccc2N(C)C)c1 [YNT-185]
sleep-onset REM periods and cataplexy-like events ([3]; intraperitoneally or ICV, NT1 mouse model): decrease sleep-onset REM periods and cataplexy-like events
wakefulness ([3]; intraperitoneally or ICV, wild type (WT) and orexin ligand-deficient mice): modestly increases wakefulness

N-(1^3,1^5-difluoro-5-oxo-4(2,1)-pyrrolidina-1(1,2),2(1,3)-dibenzenacyclo-undecaphane-4^3-yl)ethanesulfonamide_cis racemic
ring closure, yield after HPLC (amide bond, 15-membered ring, HATU/DIEA, DCM, 11.7 mM, 25.0 °C): 8%

N-(1^3,1^5-difluoro-5-oxo-6-aza-4(2,1)-pyrrolidina-1-(1,2),2-(1,3)-dibenzena-cycloundecaphane-4^3-yl)ethanesulfonamide_cis racemic
ring closure, yield after HPLC (crosslinker bond, 15-membered ring, CDI/DIEA, DMF, 52.5 mM, 25.0 °C): 11%

N-(5-oxo-4(2,1)-piperidina-1(1,2),2(1,3)-dibenzenacyclononaphane-4^3-yl)-methanesulfonamide_cis racemic
ring closure, isolated yield ([1]; amide bond, 13-membered ring, HATU/DIEA, DMF, 9.9 mM, 25.0 °C): 27%

N-(5-oxo-4(2,1)-piperidina-1(1,2),2(1,3)-dibenzenacycloundecaphane-4^3-yl)methanesulfonamide_cis racemic
ring closure, isolated yield ([1]; amide bond, 15-membered ring, HATU/DIEA, DMF, 8.9 mM, 25.0 °C): 67%

N-(5-oxo-6,9-dioxa-4(2,1)-pyrrolidina-1(1,2),2(1.3)-dibenzenacyclo-nonaphane-4^3-yl)ethanesulfonamide_cis racemic
ring closure, yield after HPLC (crosslinker bond, 13-membered ring, CDI/DIEA, DMF, 10.0 mM, 80.0 °C): 22%

N-(5-oxo-6-aza-4(2,1)-piperidina-1(1,2),2(1.3)-dibenzenacyclo-undecaphane-4^3-yl)methanesulfonamide_cis racemic
ring closure, isolated yield ([1]; crosslinker bond, 15-membered ring, CDI/DIEA, DMF, 10.0 mM, 70.0 °C): 23%

N-(5-oxo-9-oxa-4(2,1)-piperidina-1(1,2),2(1,3)-dibenzenacyclononaphane-4^3-yl)methanesulfonamide_cis racemic
ring closure, isolated yield [1, 4]: 38%

N-(5-oxo-9-oxa-4(2,1)-pyrrolidina-1(1.2),2(1,3)-dibenzenacyclo-nonaphane-4^3-yl)ethanesulfonamide_cis racemic
ring closure, isolated yield [1, 4]: 49%

N-(5-oxo-9-oxa-6-aza-4(2,1)-piperidina-1(1,2),2(1,3)-dibenzenacyclo-nonaphane-4^3-yl)methanesulfonamide_cis racemic
ring closure, isolated yield ([1]; crosslinker bond, 13-membered ring, CDI/DIEA, DMF, 97.5 mM, 70.0 °C): 23%

N-(5-oxo-12-oxa-6-aza-4(2,1)-pyrrolidina-1(1,2),2(1,3)-dibenzenacyclo-dodeca phane-43-yl)ethanesulfonamide_cis racemic
ring closure, isolated yield ([1]; crosslinker bond, 16-membered ring, CDI/DIEA, THF/DMF 4:1, 10.0 mM, 70.0 °C): 38%

N-(5-oxo-12-phenyl-2,3,5,6,7,8,9,10,16,16a-decahydro-1H-benzo[b]pyrrolo[2,1-e][1]oxa[6]azacyclododecin-1-yl)ethanesulfonamide_cis racemic
ring closure, yield after HPLC (ether bond, 12-membered ring, K2CO3, DMF, 10.7 mM, 80.0 °C): 10%

N-(6-methyl-5-oxo-9-oxa-6-aza-4(2,1)-piperidina-1(1,2),2(1,3)-dibenzena-cyclo-nonaphane-4^3-yl)methanesulfonamide_cis racemic
ring closure, yield after HPLC (crosslinker bond, 13-membered ring, triphosgene/DIEA, DCM, 8.5 mM, 25.0 °C): 3%

N-((4^2,4^3S)-5-oxo-8-oxa-4(2,1)-piperidina-1(1,2),2(1.3)-dibenzenacyclo-octaphane-4^3-yl)ethanesulfonamide
ring closure, yield after HPLC (amide bond, 12-membered ring, HATU/DIEA, DMF, 2.24 mM, 25.0 °C): 29.4%

N-((4^2S,4^3S)-5-oxo-4(2,1)-piperidina-1(1,2),2(1,3)-dibenzenacyclooctaphane-4^3-yl)methanesulfonamide
ring closure, isolated yield ([1]; amide bond, 12-membered ring, HATU/DIEA, DMF, 6.5 mM): 6%

N-((4^2S,4^3S)-5-oxo-8-oxa-4(2,1)-piperidina-1(1,2),2(1,3)-dibenzenacyclo-octaphane-4^3-yl)methanesulfonamide
ring closure, yield after HPLC (amide bond, 12-membered ring, HATU/DIEA, DMF, 2.31 mM, 25.0 °C): 23.4%
